Results on eleven molecules are retold here after patent US11136301B2, “Broad spectrum antiviral compounds and uses thereof” (The Regents Of The University Of California, priority 2015, dated 2021).

The structures appear in SMILES notation. Entries after “also recorded” stand apart in the source; their conditions may differ. Structures can show the parent of a compound that is named as a salt. Where two headings read alike, the source gives them in different places.

Data set [1] relates to HA-tagged A3G and GFP-tagged Vif or ΔVif in 293FT cells. Nature of the data set: Immunoblot of A3G and Vif levels in transfected 293FT cells. Particulars: 293FT cells, 50 μM, 16 h; for A3G levels / Vif expression: HA-A3G and GFP-Vif. A general note: In western blotting, separated proteins are transferred to a membrane and probed.
The subject of data set [2] is wild-type HIV-1 (HIV-1LAI) in MT-4 cells (permissive). Description: Antiviral activity assay: wild-type HIV-1 in permissive MT4 cells, reverse transcriptase activity in culture supernatants. Format: cell-based. Particulars: for viral replication (reverse transcriptase activity in supernatants): MT4 cells, HIV-1LAI, 15 days.
For data set [3], the system named is wild-type HIV-1 (HIV-1LAI) in H9 cells (non-permissive). Description: microbe, parasite or virus in culture. The class given is cell-based. As to conditions: for viral replication (reverse transcriptase activity in supernatants): HIV-1LAI, up to 50 μM, 15 days.
Another data set relates to HSP90. Description: ViTAP (Vif inhibitor Target Affinity Purification): streptavidin affinity purification of compound-bound proteins. Particulars: transfected 293FT cells, streptavidin affinity purification. The class given is binding.
For data set [4], the system named is polyubiquitination of A3G and Vif. Nature of the data set: Ubiquitination assay in 293FT cells. Particulars: 293FT cells expressing HA-A3G and GFP-Vif, 10 μM, ALLN. Format: cell-based. The protocol: Cells were incubated with or without 10 μM of IMA82, IMD55, or IMD64 for 16 h, and then with or without 10 μM of the calpain inhibitor ALLN for 4 h. The cells were washed once with PBS and lysed. Samples of 200 μg protein were immunoprecipitated by the addition of rat anti-HA (Roche) or mouse anti-GFP (Wako) antibodies (7 μg) and 50 μl protein G DYNABEADS® (Invitrogen) and rotated at RT for 2 h. The beads were washed three times with PBS containing 0.05% Tween 20 and boiled in 5×SDS sample buffer. The denatured proteins were resolved and electroblotted onto PVDF membranes. The membranes were probed with rabbit anti-ubiquitin, rabbit anti-HA, or rabbit anti-GFP antibodies, as described above.

Setting [5] is: Human immunodeficiency virus 1, MT4, Table 1, wild-type HIV-1, permissive MT4 cells, read-out: Antiviral activity (IC50 μM) MT4 cells.
Where [6] appears, read: Human immunodeficiency virus 1, MT4, Table 3, wild-type HIV-1, permissive MT4 cells, read-out: Antiviral activity (IC50 μM) MT4 cells.
Where [7] appears, read: Human immunodeficiency virus 1, MT4, Table 6, wild-type HIV-1, permissive MT4 cells, read-out: Antiviral activity (IC50 μM) MT4 cells.
Where [8] appears, read: Human immunodeficiency virus 1, MT4, text, permissive MT4 cells, read-out: IC50, non-specific antiviral activity in permissive cells.
Where [9] appears, read: Human immunodeficiency virus 1, H9, read-out: Antiviral activity (IC50 μM) H9 cells, Table 1, wild-type HIV-1, non-permissive H9 cells.
The mark [10] stands for this setting: Human immunodeficiency virus 1, H9, read-out: Antiviral activity (IC50 μM) H9 cells, Table 3, wild-type HIV-1, non-permissive H9 cells.
[11] abbreviates: Human immunodeficiency virus 1, H9, read-out: Antiviral activity (IC50 μM) H9 cells, Table 6, wild-type HIV-1, non-permissive H9 cells.
Where [12] appears, read: Human immunodeficiency virus 1, H9, read-out: IC50, anti-HIV-1 activity, non-permissive H9 cells.
Setting [13] is: Human immunodeficiency virus 1, MT4, wild-type HIV-1 (HIV-1LAI), MT4 cells (permissive), RT activity in culture supernatants, compounds 1 to 50 μM, read-out: Antiviral activity (IC50 μM) MT4 cells.
The mark [14] stands for this setting: Human immunodeficiency virus 1, H9, read-out: Antiviral activity (IC50 μM) H9 cells, wild-type HIV-1 (HIV-1LAI), H9 cells (non-permissive), RT activity in culture supernatants, compounds 1 to 50 μM.
Where [15] appears, read: Human immunodeficiency virus 1, MT4, Table 2, wild-type HIV-1, permissive MT4 cells, read-out: Antiviral activity (IC50 μM) MT4.
[16] abbreviates: Human immunodeficiency virus 1, H9, read-out: Antiviral activity (IC50 μM) H9, Table 2, wild-type HIV-1, non-permissive H9 cells.
[17] abbreviates: Human immunodeficiency virus 1, H9, read-out: Antiviral activity (IC50 μM) H9 Cells, Table 4, wild-type HIV-1, non-permissive H9 cells.
Setting [18] is: Human immunodeficiency virus 1, H9, read-out: Antiviral activity (IC50 μM) H9 Cells, Table 7, wild-type HIV-1, non-permissive H9 cells.
Setting [19] is: Human immunodeficiency virus 1, H9, read-out: Antiviral activity (IC50 μM) H9 cells, Table 5, wild-type HIV-1, non-permissive H9 cells.
[20] abbreviates: Human immunodeficiency virus 1, H9, read-out: Antiviral activity (IC50 μM) H9 cells, Table 8, wild-type HIV-1, non-permissive H9 cells.

In general, IC50 refers to the concentration that inhibits the measured activity by half. By melting point is commonly meant the temperature of the solid-liquid transition.

Molecule `COc1ccccc1-c1nnc(-c2ccccc2Sc2ccc([N+](=O)[O-])cc2)o1` [Compound 1b, 2-(2-Methoxyphenyl)-5-(2-((4-nitrophenyl)thio)phenyl)-1,3,4-oxadiazole] returned a melting point of 128 to 130 °C. Moreover, in data set [1], the A3G levels entry is given as “up-regulation of A3G; also recorded: restoring A3G levels” and the Vif expression result is given as “downregulation of Vif; also recorded: down-regulated Vif expression”. Moreover, in data set [2] (setting [5]), the concentration for half-maximal inhibition (IC50) was determined as 50 µM. Besides, the half-maximal inhibitory concentration (IC50) in data set [2] (setting [6]) turned out to be 50 µM. Further, the IC50 in data set [2] (setting [7]) was found to be 50 µM. In data set [2] (setting [8]), the 50% inhibitory concentration (IC50) was determined as 50 µM. Besides, the half-inhibitory concentration (IC50) in data set [3] (setting [9]) turned out to be 6.8 µM. For the same molecule, the 50% inhibitory concentration (IC50) in data set [3] (setting [10]) was 6.8 µM. Further, in data set [3] (setting [11]), the IC50 stood at 6.8 µM. In addition, the IC50 in data set [3] (setting [12]) turned out to be 6.8 µM.
Consider `COc1cc(C(=O)NCCOCCOCCOCCNC(=O)CCCCC2SCC3NC(=O)NC32)ccc1NC(=O)c1ccccc1Sc1ccc([N+](=O)[O-])cc1` (stereo not drawn) [IMD40, 3-methoxy-4-(2-((4-nitrophenyl)thio)benzamido)-N-(13-oxo-17-(2-oxohexahydro-1H-thieno[3,4-d]imidazol-4-yl)-3,6,9-trioxa-12-azaheptadecyl)benzamide], for which the “co-purification of HSP90 (90 kDa protein) with the compound” value (from here on “co-purification of HSP90”) in the data set on HSP90 is “binds HSP90; also recorded: purified a specific 90 kDa protein”. In data set [3] (H9 cells), the “viral replication (reverse transcriptase activity in supernatants)” value (shortened to “viral replication”) is reported as “dose-dependently inhibited viral replication”.
On to `[N-]=[N+]=Nc1ccc(C(=O)NCCOCCOCCOCCNC(=O)CCCCC2SCC3NC(=O)NC32)cc1` (stereo not drawn) [IMD64, 4-Azido-N-(13-oxo-17-(2-oxohexahydro-1H-thieno[3,4-d]imidazol-4-yl)-3,6,9-trioxa-12-azaheptadecyl)benzamide], for which the “viral replication” value in data set [2] (up to 50 μM) and in data set [3] (H9 cells) was “no effect on viral replication” in each case. In the data set on HSP90, the “co-purification of HSP90” value is listed as “did not associate”. Also, the A3G ubiquitination result in data set [4] is recorded as “extensively ubiquitinated”.
`COc1ccccc1-n1cc(-c2ccccc2Sc2ccc([N+](=O)[O-])cc2)nn1` [Compound 1d, 1-(2-Methoxyphenyl)-4-(2-((4-nitrophenyl)thio)phenyl)-1H-1,2,3-triazole]: the melting point fell in the range of 149 to 151 °C. In data set [1], the A3G levels result is reported as “up-regulation of A3G; also recorded: restoring A3G levels” and the Vif expression result is “downregulation of Vif; also recorded: down-regulated Vif expression”. Besides, in data set [2] (setting [5]), the IC50 was greater than 50 µM. Moreover, the IC50 in data set [2] (setting [6]) is greater than 50 µM. Moreover, the IC50 in data set [2] (setting [7]) was greater than 50 µM. Further, the half-inhibitory concentration (IC50) in data set [2] (setting [13]) is greater than 50 µM. Besides, in data set [2] (permissive MT4 cells, up to 50 μM), the “antiviral activity in MT4 cells (specificity)” value was “no activity”. Further, the concentration for half-maximal inhibition (IC50) in data set [3] (setting [9]) is 1.2 µM. In addition, the IC50 in data set [3] (setting [10]) worked out at 1.2 µM. In data set [3] (setting [11]), the IC50 came to 1.2 µM. Moreover, the IC50 in data set [3] (setting [14]) stood at 1.2 µM. The IC50 in data set [3] (setting [12]) worked out at 1.2 µM.
Take `COc1ccccc1C(=O)NCCOCCOCCOCCNC(=O)CCCCC1SCC2NC(=O)NC21` (stereo not drawn) [IMD41, 2-methoxy-N-(13-oxo-17-(2-oxohexahydro-1H-thieno[3,4-d]imidazol-4-yl)-3,6,9-trioxa-12-azaheptadecyl)benzamide]: the “viral replication” value in data set [2] (up to 50 μM) and in data set [3] (H9 cells) was “no effect on viral replication” throughout. In addition, the “co-purification of HSP90” value in the data set on HSP90 was “did not co-purify”.
As to `COc1cc(C(=O)NCCOCCOCCOCCNC(=O)CCCCC2SCC3NC(=O)NC32)ccc1NC(=O)c1ccc(N=[N+]=[N-])cc1Sc1ccc([N+](=O)[O-])cc1` (stereo not drawn) [IMD55, 4-azido-N-(2-methoxy-4-((13-oxo-17-(2-oxohexahydro-1H-thieno[3,4-d]imidazol-4-yl)-3,6,9-trioxa-12-azaheptadecyl)carbamoyl)phenyl)-2-((4-nitrophenyl)thio)benzamide], the “co-purification of HSP90” value in the data set with HSP90 is “co-purified; also recorded: specifically co-purify”. In addition, in data set [4], the A3G ubiquitination result was “not observed” and the Vif ubiquitination entry is “ubiquitinated”. Further, in data set [3] (H9 cells), the “viral replication” value was “dose-dependently inhibited viral replication”.
Regarding `COc1ccccc1-n1cc(-c2ccccc2S(=O)(=O)c2ccc(C(=O)O)cc2)nn1` (as salt: salt) [Compound 2gy, 2-Hydroxy-N,N,N-trimethylethanaminium 4-((2-(1-(2-methoxyphenyl)-1H-1,2,3-triazol-4-yl)phenyl)sulfonyl)benzoate], the melting point amounted to 93 °C.
Molecule `COc1ccccc1-n1nncc1-c1ccccc1Sc1ccc([N+](=O)[O-])cc1` [Compound 1e, 1-(2-Methoxyphenyl)-5-(2-((4-nitrophenyl)thio)phenyl)-1H-1,2,3-triazole] showed a melting point of 139 to 141 °C. Moreover, in data set [1], the A3G levels result is “up-regulation of A3G; also recorded: restoring A3G levels” and the Vif expression result is “downregulation of Vif; also recorded: down-regulated Vif expression”. Besides, the IC50 in data set [2] (setting [5]) came to 25 µM. The IC50 in data set [2] (setting [6]) was 25 µM. Moreover, in data set [2] (setting [8]), the IC50 is 25 µM. Also, the IC50 in data set [3] (setting [9]) was determined as 15 µM. Further, the IC50 in data set [3] (setting [10]) was found to be 15 µM. Further, the IC50 in data set [3] (setting [12]) came to 15 µM.
As for `COc1ccccc1-c1noc(-c2ccccc2Sc2ccc([N+](=O)[O-])cc2)n1` [Compound 1c, 3-(2-Methoxyphenyl)-5-(2-((4-nitrophenyl)thio)phenyl)-1,2,4-oxadiazole], the melting point was found to be 138 °C. For the same molecule, in data set [1], the A3G levels entry is “up-regulation of A3G; also recorded: restoring A3G levels” and the Vif expression entry is “downregulation of Vif; also recorded: down-regulated Vif expression”. Further, the IC50 in data set [2] (setting [5]) was greater than 50 µM. Further, the IC50 in data set [2] (setting [6]) was greater than 50 µM. In addition, the half-inhibitory concentration (IC50) in data set [3] (setting [9]) worked out at 6.8 µM. Also, in data set [3] (setting [10]), the half-maximal inhibitory concentration (IC50) turned out to be 6.8 µM. In addition, in data set [3] (setting [12]), the concentration for half-maximal inhibition (IC50) was found to be 6.8 µM.
On to `COc1ccc(OC)c(-n2cc(-c3ccccc3Sc3ccc([N+](=O)[O-])cc3)nn2)c1` [Compound 5ax, 1-(2,5-Dimethoxyphenyl)-4-(2-((4-nitrophenyl)thio)phenyl)-1H-1,2,3-triazole], for which the “upregulation of A3G and downregulation of Vif (immunoblots, FIG. 16)” value in data set [1] was “same mechanism as of RN-18; also recorded: same mechanism as observed for RN-18 and 1d”. Besides, the half-maximal inhibitory concentration (IC50) was greater than 50 µM in data set [2] (setting [15]); greater than 50 µM in data set [2] (setting [13]); 0.01 µM in data set [3] (setting [16]); 0.01 µM in data set [3] (setting [17]); 0.01 µM in data set [3] (setting [18]); 0.01 µM in data set [3] (setting [19]). For the same molecule, the half-inhibitory concentration (IC50) in data set [3] (setting [20]), in data set [3] (setting [14]) and in data set [3] (setting [12]) was 0.01 µM throughout. Moreover, in data set [3] (H9 cells, IC50 compared with RN-18), the “fold more potent than the original lead molecule RN-18” value is on record as “about 1000 fold”.
As for `COc1ccc(OC)c(-n2cc(-c3ccccc3S(=O)(=O)c3ccc(N)cc3)nn2)c1` [Compound 5ey, 4-((2-(1-(2,5-Dimethoxyphenyl)-1H-1,2,3-triazol-4-yl)phenyl)sulfonyl)aniline], in data set [1], the “upregulation of A3G and downregulation of Vif (immunoblots, FIG. 16)” value is “same mechanism as of RN-18; also recorded: same mechanism as observed for RN-18 and 1d”. For the same molecule, the half-inhibitory concentration (IC50) in data set [2] (setting [15]) was greater than 50 µM; in data set [2] (setting [13]) it was greater than 50 µM; in data set [3] (setting [16]), 0.6 µM; in data set [3] (setting [17]), 0.6 µM; in data set [3] (setting [18]) it was 0.6 µM; in data set [3] (setting [19]), 0.6 µM. Moreover, the IC50 in data set [3] (setting [20]) and in data set [3] (setting [14]) was 0.6 µM each time.
